In PubChem BioAssay AID248 (DTP/NCI, 2004):
Where “and” joins values, the source holds several entries; their conditions need not be identical. Equal entries are not always repeated. Inconclusive results and toxic doses are left out.

Tested on: L1210 leukemia ip in BDF1 mice, survival T/C
Test: NCI In Vivo Anticancer Drug Screen. Data for tumor model L1210 Leukemia (intraperitoneal) in B6D2F1 (BDF1) mice
Settings: endpoint: mean survival time, higher = longer survival
Outline: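 Each compound was tested against a transplantable tumor grown in mice. The endpoint was survival, with treated animals benchmarked against vehicle controls as a simple ratio.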

[1] = dose: 100.0 mg/kg/injection, schedule: Q01DX001 (ip), vehicle: carboxymethylcellulose (CMC)
[2] = dose: 200.0 mg/kg/injection, schedule: Q01DX001 (ip), vehicle: carboxymethylcellulose (CMC)
[3] = dose: 400.0 mg/kg/injection, schedule: Q01DX001 (ip), vehicle: carboxymethylcellulose (CMC)
[4] = dose: 100.0 mg/kg/injection, schedule: Q01DX009 (ip), vehicle: Klucel (hydroxypropylcellulose) (HPC)
[5] = dose: 200.0 mg/kg/injection, schedule: Q01DX009 (ip), vehicle: Klucel (hydroxypropylcellulose) (HPC)
[6] = dose: 100.0 mg/kg/injection, schedule: Q01DX001 (ip), vehicle: other
[7] = dose: 100.0 mg/kg/injection, schedule: Q04DX003 (ip), vehicle: Klucel (hydroxypropylcellulose) (HPC)
[8] = dose: 200.0 mg/kg/injection, schedule: Q04DX003 (ip), vehicle: Klucel (hydroxypropylcellulose) (HPC)
[9] = dose: 100.0 mg/kg/injection, schedule: Q04DX003 (ip), vehicle: saline
[10] = dose: 200.0 mg/kg/injection, schedule: Q04DX003 (ip), vehicle: saline
[11] = dose: 400.0 mg/kg/injection, schedule: Q04DX003 (ip), vehicle: saline
[12] = dose: 100.0 mg/kg/injection, schedule: Q01DX009 (ip), vehicle: saline with Tween-80
[13] = dose: 200.0 mg/kg/injection, schedule: Q01DX009 (ip), vehicle: saline with Tween-80
[14] = dose: 400.0 mg/kg/injection, schedule: Q01DX009 (ip), vehicle: saline with Tween-80
[15] = dose: 100.0 mg/kg/injection, schedule: Q04DX003 (ip), vehicle: saline with Tween-80
[16] = dose: 200.0 mg/kg/injection, schedule: Q04DX003 (ip), vehicle: saline with Tween-80
[17] = dose: 100.0 mg/kg/injection, schedule: Q01DX009 (ip), vehicle: saline

O=C1NC(=O)N(Cc2ccccc2)C(=O)C1Cc1ccccc1 (configuration not stated)
T/C [1]: 97 % of control | T/C [2]: 95 % of control | T/C [3]: 103 % of control

CSc1nc(C(=O)O)c(C)c(=O)[nH]1
T/C (dose: 100.0 mg/kg/injection, schedule: Q01DX Z (ip), vehicle: saline): 109 % of control | T/C (dose: 200.0 mg/kg/injection, schedule: Q01DX Z (ip), vehicle: saline): 100 % of control

N/C(=N\O)c1cn(C2OC(CO)C(O)C2O)c2nc(Cl)nc(N)c12 (configuration not stated)
T/C (dose: 50.0 mg/kg/injection, schedule: Q01DX001 (ip), vehicle: Klucel (hydroxypropylcellulose) (HPC)): 109 % of control | T/C (dose: 100.0 mg/kg/injection, schedule: Q01DX001 (ip), vehicle: Klucel (hydroxypropylcellulose) (HPC)): 115 % of control

Cc1ccc(NC(=S)N(C)C)cc1C
T/C [4]: 95 % of control | T/C [5]: 101 % of control | T/C (dose: 400.0 mg/kg/injection, schedule: Q01DX009 (ip), vehicle: Klucel (hydroxypropylcellulose) (HPC)): 104 % of control

CCCCCCCC(N)C(=O)O (configuration not stated)
T/C (dose: 100.0 mg/kg/injection, schedule: Q04DX002 (ip), vehicle: gum acacia): 95 % of control | T/C (dose: 200.0 mg/kg/injection, schedule: Q04DX002 (ip), vehicle: gum acacia): 104 % of control | T/C (dose: 400.0 mg/kg/injection, schedule: Q04DX002 (ip), vehicle: gum acacia): 88 % of control

NNC(=O)CNc1ccccc1F
T/C (dose: 25.0 mg/kg/injection, schedule: Q04DX002 (ip), vehicle: Klucel (hydroxypropylcellulose) (HPC)): 113 % of control | T/C (dose: 50.0 mg/kg/injection, schedule: Q04DX002 (ip), vehicle: Klucel (hydroxypropylcellulose) (HPC)): 102 % of control | T/C (dose: 100.0 mg/kg/injection, schedule: Q04DX002 (ip), vehicle: Klucel (hydroxypropylcellulose) (HPC)): 102 % of control and 105 % of control

N#CC(c1ccccc1)c1ccccc1
T/C [6]: 97 % of control | T/C (dose: 200.0 mg/kg/injection, schedule: Q01DX001 (ip), vehicle: other): 90 % of control | T/C (dose: 400.0 mg/kg/injection, schedule: Q01DX001 (ip), vehicle: other): 95 % of control

C[N+]1(C)CC2C3C=CC(C3)C2C1 (configuration not stated)
T/C [7]: 102 % of control | T/C [8]: 96 % of control

ClC1c2ccccc2-c2nsnc2C1Cl (configuration not stated)
T/C (dose: 50.0 mg/kg/injection, schedule: Q01DX009 (ip), vehicle: Klucel (hydroxypropylcellulose) (HPC)): 94 % of control | T/C [4]: 87 % of control | T/C [5]: 91 % of control | T/C (dose: 200.0 mg/kg/injection, schedule: Q04DX002 (ip), vehicle: Klucel (hydroxypropylcellulose) (HPC)): 92 % of control

CSC1c2ccccc2-c2ccccc21
T/C (dose: 44.0 mg/kg/injection, schedule: Q01DX001 (ip), vehicle: carboxymethylcellulose (CMC)): 100 % of control | T/C (dose: 44.0 mg/kg/injection, schedule: Q01DX001 (ip), vehicle: other): 105 % of control | T/C (dose: 66.0 mg/kg/injection, schedule: Q01DX001 (ip), vehicle: carboxymethylcellulose (CMC)): 94 % of control and 105 % of control | T/C (dose: 66.0 mg/kg/injection, schedule: Q01DX001 (ip), vehicle: other): 97 % of control | T/C [1]: 106 % of control and 111 % of control | T/C [6]: 100 % of control | T/C (dose: 150.0 mg/kg/injection, schedule: Q01DX001 (ip), vehicle: carboxymethylcellulose (CMC)): 95 % of control and 100 % of control | T/C (dose: 150.0 mg/kg/injection, schedule: Q01DX001 (ip), vehicle: other): 97 % of control | T/C [2]: 104 % of control | T/C [3]: 107 % of control

CN(C)C(=O)C1C2C=CC(CC2)C1C(=O)N(C)C (configuration not stated)
T/C [9]: 96 % of control | T/C [10]: 96 % of control | T/C [11]: 96 % of control

CCCC(=O)Nc1cc(C)ccc1OC
T/C (dose: 100.0 mg/kg/injection, schedule: Q01DX001 (ip), vehicle: saline with Tween-80): 94 % of control | T/C [12]: 101 % of control and 90 % of control | T/C (dose: 100.0 mg/kg/injection, schedule: Q04DX002 (ip), vehicle: saline with Tween-80): 103 % of control and 92 % of control | T/C (dose: 200.0 mg/kg/injection, schedule: Q01DX001 (ip), vehicle: saline with Tween-80): 98 % of control | T/C [13]: 101 % of control and 106 % of control | T/C (dose: 200.0 mg/kg/injection, schedule: Q04DX002 (ip), vehicle: saline with Tween-80): 97 % of control and 92 % of control | T/C (dose: 400.0 mg/kg/injection, schedule: Q01DX001 (ip), vehicle: saline with Tween-80): 94 % of control | T/C [14]: 97 % of control and 87 % of control | T/C (dose: 400.0 mg/kg/injection, schedule: Q04DX002 (ip), vehicle: saline with Tween-80): 95 % of control and 98 % of control

CCn1ccc2c(N)ncnc21
T/C (dose: 50.0 mg/kg/injection, schedule: Q01DX001 (ip), vehicle: saline): 95 % of control

CC(C)N(C)c1ccc(N=Nc2cc(Cl)ccc2Cl)cc1
T/C [15]: 98 % of control | T/C [16]: 102 % of control | T/C (dose: 400.0 mg/kg/injection, schedule: Q04DX003 (ip), vehicle: saline with Tween-80): 104 % of control

Cn1c[n+](C)cc1C(=O)[O-]
T/C [17]: 91 % of control | T/C [9]: 97 % of control | T/C (dose: 200.0 mg/kg/injection, schedule: Q01DX009 (ip), vehicle: saline): 97 % of control | T/C [10]: 102 % of control | T/C (dose: 400.0 mg/kg/injection, schedule: Q01DX009 (ip), vehicle: saline): 95 % of control | T/C [11]: 109 % of control

CCN(CC)CCOc1ccc(C)cc1
T/C (dose: 50.0 mg/kg/injection, schedule: Q01DX009 (ip), vehicle: saline): 97 % of control | T/C [17]: 89 % of control

O=C(NNC1CCCCC1)c1ccccc1
T/C (dose: 100.0 mg/kg/injection, schedule: Q04DX003 (ip), vehicle: acetone): 107 % of control | T/C (dose: 200.0 mg/kg/injection, schedule: Q04DX003 (ip), vehicle: acetone): 109 % of control | T/C (dose: 400.0 mg/kg/injection, schedule: Q04DX003 (ip), vehicle: acetone): 86 % of control

COC(=O)c1ccccc1C1=C(O)C(=O)C(c2ccccc2C(=O)OC)=C(O)C1=O
T/C [4]: 97 % of control | T/C [5]: 98 % of control

Cc1ccc(C(=O)c2ccccc2)cc1
T/C [7]: 97 % of control | T/C [8]: 104 % of control | T/C (dose: 400.0 mg/kg/injection, schedule: Q04DX003 (ip), vehicle: Klucel (hydroxypropylcellulose) (HPC)): 92 % of control

CCNC(=O)c1ccc(NC(=O)Nc2ccc(C3=NCCN3)cc2)cc1NC(=O)Nc1ccc(C2=NCCN2)cc1
T/C (dose: 37.5 mg/kg/injection, schedule: Q01DX015 (ip), vehicle: water): 198 % of control | T/C (dose: 46.0 mg/kg/injection, schedule: Q01DX001 (ip), vehicle: water): 123 % of control | T/C (dose: 50.0 mg/kg/injection, schedule: Q01DX015 (ip), vehicle: water): 163 % of control | T/C (dose: 62.5 mg/kg/injection, schedule: Q01DX Z (ip), vehicle: water): 116 % of control | T/C (dose: 93.0 mg/kg/injection, schedule: Q01DX001 (ip), vehicle: water): 166 % of control and 189 % of control | T/C (dose: 140.0 mg/kg/injection, schedule: Q01DX001 (ip), vehicle: water): 171 % of control and 176 % of control and 193 % of control

c1ccc(CCNCc2ccc(CNCCc3ccccc3)cc2)cc1
T/C [15]: 93 % of control | T/C [16]: 90 % of control

CCCCCCCCC1SC1CCCCCCCCOC(=O)CCCCCCCC1SC1CCCCCCCC (configuration not stated)
T/C [12]: 101 % of control | T/C [13]: 93 % of control | T/C [14]: 91 % of control

O=C(/C=C/c1ccccc1)NC(=S)Nc1nccs1
T/C (dose: 100.0 mg/kg/injection, schedule: Q01DX009 (ip), vehicle: carboxymethylcellulose (CMC)): 100 % of control and 104 % of control | T/C (dose: 100.0 mg/kg/injection, schedule: Q04DX002 (ip), vehicle: carboxymethylcellulose (CMC)): 97 % of control and 103 % of control | T/C (dose: 100.0 mg/kg/injection, schedule: Q04DX003 (ip), vehicle: carboxymethylcellulose (CMC)): 100 % of control | T/C (dose: 200.0 mg/kg/injection, schedule: Q01DX009 (ip), vehicle: carboxymethylcellulose (CMC)): 100 % of control and 111 % of control | T/C (dose: 200.0 mg/kg/injection, schedule: Q04DX002 (ip), vehicle: carboxymethylcellulose (CMC)): 99 % of control and 103 % of control | T/C (dose: 200.0 mg/kg/injection, schedule: Q04DX003 (ip), vehicle: carboxymethylcellulose (CMC)): 96 % of control | T/C (dose: 400.0 mg/kg/injection, schedule: Q01DX009 (ip), vehicle: carboxymethylcellulose (CMC)): 96 % of control and 102 % of control | T/C (dose: 400.0 mg/kg/injection, schedule: Q04DX002 (ip), vehicle: carboxymethylcellulose (CMC)): 103 % of control and 87 % of control | T/C (dose: 400.0 mg/kg/injection, schedule: Q04DX003 (ip), vehicle: carboxymethylcellulose (CMC)): 93 % of control
